From US11845744B2, “Methods and compositions for modulating splicing” (Skyhawk Therapeutics, Inc., priority 2019, dated 2023)

Legend:
SMN protein = SMN protein assay (Mesoscale Discovery) in SMA patient fibroblasts (GM03813); type: cell-based, human; settings: 48 hours, MSD assay, read-out: SMN EC50 (SMN Protein Potency)
Description: Compounds were tested on spinal muscular atrophy (SMA) patient fibroblasts (GM03813, Coriell) at doses ranging from 2.5 μM to 0.6 nM. 7000 cells/well were seeded in 96-well plates. Compounds were incubated for 48 hours and the cells were lysed with 100 μL of lysis buffer. 20 μL of lysate was used for SMN protein measurement by Mesoscale Discovery (MSD) assay developed by PharmOptima (Michigan). A standard curve prepared with SMN protein ranging from 1 μg/ml to 19.5 pg/ml was used in each MSD plate to calculate the absolute SMN protein amount in each sample.

[1] = system: MDR1-MDCK cell monolayers; experiment: MDCK-MDR1 permeability assay for blood-brain-barrier penetration potential (Papp, efflux ratio); type: in vitro ADME; settings: 5 μM; for MDCK-MDR1: % Recov A-B: apical to basolateral; for MDCK-MDR1: % Recov A-B / MDCK-MDR1: % Recov B-A: 120 minutes, pH 7.4; for MDCK-MDR1: % Recov B-A: basolateral to apical
Description: (§1) The dosing solution concentration was 5 μM of test article in the assay buffer. […] Each determination was performed in duplicate. […] All samples were assayed by LC-MS/MS using electrospray ionization. Analytical conditions are outlined below.
(§2) The apparent permeability (Papp) and percent recovery were calculated as follows: […]

MDR1 = experiment: as above; type: in vitro ADME; settings: dog; for Papp A→B at 120 min, 5 μM: MDCK-MDR1, apical to basolateral; for Papp A→B at 120 min, 5 μM / Papp B→A at 120 min, 5 μM: pH 7.4; for Papp B→A at 120 min, 5 μM: MDCK-MDR1, basolateral to apical; for efflux ratio at 120 min, 5 μM: MDCK-MDR1, pH 7.4, Efflux ratio = Papp (B-to-A)/Papp (A-to-B)
Description: as §1, §2

SMN = experiment: Quantitative splicing assay (SMN) in SMA patient fibroblasts (GM03813), qPCR of SMN FL and SMN Δ7; type: cell-based; settings: Homo sapiens, Fibroblast, 24 h, SMN FL mRNA by qPCR
Description: Spinal muscular atrophy (SMA) patient fibroblasts (GM03813, Coriell) were plated in 96-well plates at 50,000 cells/well. Immediately after plating, cells were dosed with compounds for 24 h at concentrations ranging from 2.5 μM to 0.6 nM (0.1% DMSO). Treated cells were lysed and cDNA synthesized using the Fast Advanced Cells-to-Ct kit (ThermoFisher A35378) according to the manufacturer's instructions. 2 μL of each cDNA were used in qPCR reactions. The qPCR reactions were prepared in 384-well plates in 10 μL volume, using TaqMan™ Fast Advanced Master Mix (ThermoFisher; 4444965) with primers and probes shown in the table below. Reactions were run in a Quant Studio 6 qPCR instrument with default settings.

| Compound | EC50 (SMN protein) [nM] | MDCK-MDR1: % Recov A-B [1] [%] | MDCK-MDR1: % Recov B-A [1] [%] | Papp A→B at 120 min, 5 μM (MDR1) [×10⁻⁶ cm/s] | Papp B→A at 120 min, 5 μM (MDR1) [×10⁻⁶ cm/s] | efflux ratio at 120 min, 5 μM (MDR1) | EC50 (SMN) [nM] | MDCK-MDR1: Efflux ([1]; Efflux ratio = Papp (B-to-A)/Papp (A-to-B)) |
| --- | --- | --- | --- | --- | --- | --- | --- | --- |
| CN(c1cnc(-c2ccc(-c3ccn(C)c(=O)c3)cc2O)nn1)[C@@H]1C[C@H]2CC[C@H](N2)[C@@H]1F (single isomer, unassigned) [Compound 1A] | 500 to 10000 | 81 | 94 | 0.12 | 37.8 | 309 | – | – |
| CN(c1cnc(-c2ccc(-c3ccn(C)c(=O)c3)cc2O)nn1)[C@H]1C[C@@H]2CC[C@@H](N2)[C@H]1F (single isomer, unassigned) [Compound 1B] | 500 to 10000 | 95 | 84 | 0.3 | 46.4 | 152 | – | – |
| CN(c1cnc(-c2ccc(-c3cn[nH]c3)cc2O)nn1)[C@@H]1C[C@H]2CC[C@H](N2)[C@@H]1F (single isomer, unassigned) [Compound 2A] | 500 to 10000 | 78 | 74 | 2.05 | 39.8 | 19 | – | – |
| CN(c1cnc(-c2ccc(-c3cn[nH]c3)cc2O)nn1)[C@H]1C[C@@H]2CC[C@@H](N2)[C@H]1F (single isomer, unassigned) [Compound 2B] | 0.01 to 15 | 93 | 96 | 2.26 | 53.4 | 24 | 0.01 to 15 | – |
| CN(c1cnc(-c2ccc(-c3cnn(C)c3)cc2O)nn1)[C@@H]1C[C@H]2CC[C@H](N2)[C@@H]1F (single isomer, unassigned) [Compound 3A] | 15 to 50 | 67 | 72 | 5.37 | 37.3 | 7 | 0.01 to 15 | – |
| CN(c1cnc(-c2ccc(-c3cnn(C)c3)cc2O)nn1)[C@H]1C[C@@H]2CC[C@@H](N2)[C@H]1F (single isomer, unassigned) [Compound 3B] | 0.01 to 15 | 62 | 76 | 4.3 | 37.8 | 9 | 0.01 to 15 | – |
| CN(C)C(=O)c1cc2cc(O)c(-c3ncc(N(C)[C@@H]4C[C@H]5CC[C@H](N5)[C@@H]4F)nn3)cc2o1 (single isomer, unassigned) [Compound 4A] | – | 89 | 96 | – | – | – | – | 26 |
| CN(C)C(=O)c1cc2cc(O)c(-c3ncc(N(C)[C@H]4C[C@@H]5CC[C@@H](N5)[C@H]4F)nn3)cc2o1 (single isomer, unassigned) [Compound 4B] | – | 91 | 101 | 3.05 | 50 | 16 | – | – |
| Cn1cc(-c2ccc(-c3ncc(O[C@@H]4C[C@H]5CCC[C@H](N5)[C@@H]4F)nn3)c(O)c2)cn1 (single isomer, unassigned) [Compound 5A] | 500 to 10000 | 69 | 79 | 9 | 30.9 | 3 | – | – |
| Cn1cc(-c2ccc(-c3ncc(O[C@H]4C[C@@H]5CCC[C@@H](N5)[C@H]4F)nn3)c(O)c2)cn1 (single isomer, unassigned) [Compound 5B] | 100 to 500 | 83 | 90 | 10.2 | 43.7 | 4 | – | – |
